28 compounds from ChEMBL document CHEMBL5244269, “Improving metabolic stability and removing aldehyde oxidase liability in a 5-azaquinazoline series of IRAK4 inhibitors” (Bioorg Med Chem, 2020) can be followed below.

Each structure is given as a SMILES string.

Data set [1] addresses T1, Interleukin-1 receptor-associated kinase 4 (Homo sapiens, UniProt Q9NWZ3).
T1 sequence (Q9NWZ3 whole entry): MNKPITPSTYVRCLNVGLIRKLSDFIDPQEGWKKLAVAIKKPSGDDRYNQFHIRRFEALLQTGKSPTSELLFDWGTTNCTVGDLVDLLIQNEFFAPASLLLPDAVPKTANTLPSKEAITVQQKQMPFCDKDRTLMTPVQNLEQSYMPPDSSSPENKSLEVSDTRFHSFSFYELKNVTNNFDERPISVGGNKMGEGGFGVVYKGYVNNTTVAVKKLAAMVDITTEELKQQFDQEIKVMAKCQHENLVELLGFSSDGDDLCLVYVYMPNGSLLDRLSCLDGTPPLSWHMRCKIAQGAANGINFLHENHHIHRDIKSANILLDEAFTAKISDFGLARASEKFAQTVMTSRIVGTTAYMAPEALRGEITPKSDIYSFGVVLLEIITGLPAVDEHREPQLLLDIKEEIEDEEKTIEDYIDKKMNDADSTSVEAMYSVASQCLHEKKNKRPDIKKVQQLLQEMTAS
Briefly: Inhibition of IRAK4 (unknown origin) in presence of ATP by enzymatic assay.

For data set [2], the target named is T1, Interleukin-1 receptor-associated kinase 4. The data set can be described thus: Inhibition of IRAK4 (unknown origin) phosphorylation by cell based assay.
The nature of data set [3]: Lipophilicity, LogD at pH 7.4 of the compound by shake flask method. The format is physicochemical. The note with it: buffer.
Data set [4] is described as follows: Metabolic stability in human cytosol assessed as intrinsic clearance. The format is ADME, subcellular.
Data set [5] is described as follows: Metabolic stability in human liver microsomes assessed as intrinsic clearance. It counts as ADME, Microsome. The note with it: read-out: CLH. (Liver microsomes are vesicles of endoplasmic reticulum, rich in cytochrome P450 enzymes.)
The nature of data set [6]: Metabolic stability in human hepatocytes assessed as intrinsic clearance measured per 10^6 cells. The note with it: read-out: CLH. It counts as ADME, cell-based, Hepatocyte.
Data set [7] in a line: Apparent permeability across apical to basolateral side in human Caco-2 cells measured for 360 mins by liquid scintillation counting based analysis. The format is ADME, cell-based.
Data set [8] can be described thus: Efflux ratio of apparent permeability basolateral to apical side over apical to basolateral side in human Caco-2 cells measured for 360 mins by liquid scintillation counting based analysis. The format is ADME, cell-based. (Caco-2 monolayers are a common model of the intestinal barrier.)

Take `Cn1cc(Nc2nc(N[C@@H]3CCOC3)c3nc(CC#N)ccc3n2)cn1`: the concentration for half-maximal inhibition (IC50) in data set [1] was found to be 211 nM; in data set [2], 3500 nM. For the same compound, the log distribution coefficient (logD) in data set [3] was found to be 1.5.

Turning to `Cc1ncncc1-c1ccc2nc(Nc3cnn(C4CCN(C)CC4)c3)nc(OC3(C)CC3)c2n1`, the IC50 in data set [1] worked out at 5 nM; in data set [2] it was 170 nM. The microsomal CLint in data set [4] was determined as 4.8 µL/min/mg; in data set [5] it was 44 µL/min/mg. In addition, the logD in data set [3] was found to be 1.9. In addition, in data set [6], the hepatocyte CLint stood at 4.7 µL/min/1e6 cells.

In the case of `Cn1cc(Nc2nc(NC3CC3)c3nc(CC#N)ccc3n2)cn1`, the values for the IC50 in data set [1] and in data set [2] were 22 nM and 490 nM, respectively. In data set [3], this compound registered a pH-dependent lipophilicity (logD) of 2.1.

Consider `Cc1ncc(-c2ccc3nc(Nc4cnn(C5CCN(C)CC5)c4)nc(OC4(C)CC4)c3n2)c(C)n1`, for which the IC50 was 7 nM in data set [1] and 260 nM in data set [2]. Moreover, the microsomal CLint is 2.2 µL/min/mg in data set [4] and 23 µL/min/mg in data set [5]. In data set [3], this compound showed a logD of 2.1. Moreover, the hepatocyte CLint in data set [6] was found to be 3.4 µL/min/1e6 cells.

With `Cc1ncc(-c2ccc3nc(Nc4cnn(C5CCN(C)CC5)c4)nc(OC4(C)CC4)c3n2)cn1`, the IC50 was 1.8 nM in data set [1] and 140 nM in data set [2]. The microsomal CLint in data set [4] came out at 69 µL/min/mg; in data set [5], 52 µL/min/mg. In data set [3], the logD was found to be 2.2. For the same compound, the hepatocyte CLint in data set [6] stood at 170 µL/min/1e6 cells.

Consider `Cn1cc(Nc2nc(NC3CCOCC3)c3nc(CC#N)ccc3n2)cn1`, for which the IC50 in data set [1] came to 139 nM; in data set [2], 2100 nM. Also, in data set [3], the pH-dependent lipophilicity (logD) was 1.7.

As to `CN1CCC(n2cc(Nc3nc(OC4(C)CC4)c4nc(-c5ccn(C)n5)ccc4n3)cn2)CC1`, the concentration for half-maximal inhibition (IC50) is 490 nM in data set [1] and 21000 nM in data set [2]. Further, in data set [5], the microsomal CLint amounted to 18 µL/min/mg. Also, the logD in data set [3] is 2.1.

As to `CN1CCC(n2cc(Nc3nc(OC4(C)CC4)c4nc(C(=O)N(C)C)ccc4n3)cn2)CC1`, the half-inhibitory concentration (IC50) in data set [1] is 13 nM; in data set [2], 670 nM. For the same compound, the Papp A→B at 6 h in data set [7] is 1.5 ×10⁻⁶ cm/s. Besides, the microsomal CLint in data set [5] was below 4.5 µL/min/mg. In addition, in data set [8], the efflux ratio at 6 h was found to be 17. Also, the logD in data set [3] came out at 1.2. For the same compound, the hepatocyte CLint in data set [6] was 1.7 µL/min/1e6 cells.

For the compound `CN1CCC(n2cc(Nc3nc(OC4(C)CC4)c4nc(-c5cncnc5)c(F)cc4n3)cn2)CC1`, the results for the half-maximal inhibitory concentration (IC50) in data set [1] and in data set [2] were 1 nM and 29 nM, respectively. In addition, the figures for the microsomal CLint in data set [4] and in data set [5] were 20 µL/min/mg and 88 µL/min/mg, respectively. In data set [6], the hepatocyte CLint amounted to 14 µL/min/1e6 cells.

With `CC(=O)N1CCC(n2cc(Nc3nc(OC4CCOCC4)c4nc(CC#N)ccc4n3)cn2)CC1`, the concentration for half-maximal inhibition (IC50) is 32 nM in data set [1] and 2000 nM in data set [2]. The microsomal CLint in data set [5] was determined as 5 µL/min/mg. Also, the logD in data set [3] stood at 1.2.

With `Cc1ncc(-c2nc3c(OC4(C)CC4)nc(Nc4cnn([C@@H]5C[C@H]6C[C@@H]5CN6C)c4)nc3cc2F)cn1`, the IC50 is 32 nM in data set [1] and 1100 nM in data set [2]. In addition, the microsomal CLint in data set [5] came out at 14 µL/min/mg. The same compound yielded a logD in data set [3] of 1.5.

On to `Cc1ncc(-c2nc3c(OC4(C)CC4)nc(Nc4cnn(C5CC6(C5)CN(C)C6)c4)nc3cc2F)cn1`, for which the IC50 came to 3 nM in data set [1] and 220 nM in data set [2]. The microsomal CLint in data set [5] was below 3 µL/min/mg. The compound also registered a logD in data set [3] of 1.4. Also, the hepatocyte CLint in data set [6] was below 1 µL/min/1e6 cells.

Regarding `CN1CCC(n2cc(Nc3nc(OC4(C)CC4)c4nc(-c5ccnnc5)ccc4n3)cn2)CC1`, the IC50 in data set [1] stood at 1 nM; in data set [2] it was 130 nM. In data set [5], the microsomal CLint worked out at 48 µL/min/mg. For the same compound, in data set [3], the logD is 1.7. Also, the hepatocyte CLint in data set [6] amounted to 8.4 µL/min/1e6 cells.

As to `CN1CC2(CC(n3cc(Nc4nc(OC5(C)CC5)c5nc(C6CC6)c(F)cc5n4)cn3)C2)C1`, the IC50 in data set [1] came to 3 nM; in data set [2] it was 300 nM. In addition, the microsomal CLint in data set [5] was below 3 µL/min/mg. This compound also registered a log distribution coefficient (logD) in data set [3] of 2.6. Moreover, in data set [6], the hepatocyte CLint was below 1 µL/min/1e6 cells.

On to `N#CCc1ccc2nc(Nc3cnn(C4CCOCC4)c3)nc(NC3CCOCC3)c2n1`, for which the half-inhibitory concentration (IC50) in data set [1] was found to be 15 nM; in data set [2], 570 nM. In data set [5], the microsomal CLint is 110 µL/min/mg. For the same compound, the logD in data set [3] is 1.9.

On to `Cc1nc2c(OC3(C)CC3)nc(Nc3cnn(C4CC5(C4)CN(C)C5)c3)nc2cc1F`, for which the half-maximal inhibitory concentration (IC50) was found to be 3 nM in data set [1] and 200 nM in data set [2]. For the same compound, the microsomal CLint in data set [5] is below 3 µL/min/mg. In addition, the logD in data set [3] amounted to 2.2. For the same compound, the hepatocyte CLint in data set [6] worked out at 4 µL/min/1e6 cells.

For `CN1CCC(n2cc(Nc3nc(OC4(C)CC4)c4nc(-c5cccnc5)ccc4n3)cn2)CC1`, the values for the 50% inhibitory concentration (IC50) in data set [1] and in data set [2] were 1 nM and 120 nM, respectively. In data set [5], the microsomal CLint is 130 µL/min/mg. In data set [3], this compound had a logD of 2.6.

Turning to `CN1CCC(n2cc(Nc3nc(OC4(C)CC4)c4nc(-c5cn(C)nn5)ccc4n3)cn2)CC1`, the results for the half-maximal inhibitory concentration (IC50) in data set [1] and in data set [2] were 19 nM and 510 nM, respectively. Moreover, the microsomal CLint in data set [5] stood at 13 µL/min/mg. Besides, in data set [3], the logD came out at 1.8. The hepatocyte CLint in data set [6] is below 1 µL/min/1e6 cells.

Consider `Cc1ncc(-c2nc3c(NC4(C)CC4)nc(Nc4cnn(C5CC6(C5)CN(C)C6)c4)nc3cc2F)cn1`, for which the half-maximal inhibitory concentration (IC50) in data set [1] worked out at 0.6 nM; in data set [2], 54 nM. For the same compound, in data set [5], the microsomal CLint is 11 µL/min/mg. Besides, the log distribution coefficient (logD) in data set [3] is 2.1. Further, the hepatocyte CLint in data set [6] was below 1 µL/min/1e6 cells.

On to `Cn1cc(Nc2nc(NC3COC3)c3nc(CC#N)ccc3n2)cn1`, for which the results for the IC50 in data set [1] and in data set [2] were 447 nM and 9400 nM, respectively. Also, the pH-dependent lipophilicity (logD) in data set [3] is 1.2.

Regarding `Cn1cc(Nc2nc(N[C@H]3CCOC3)c3nc(CC#N)ccc3n2)cn1`, the IC50 came to 113 nM in data set [1] and 2600 nM in data set [2]. The same compound returned a logD in data set [3] of 1.6.

On to `Cn1cc(Nc2nc(NC3(C)CC3)c3nc(CC#N)ccc3n2)cn1`, for which the half-maximal inhibitory concentration (IC50) was 2 nM in data set [1] and 110 nM in data set [2]. Also, the logD in data set [3] turned out to be 2.7. Further, the hepatocyte CLint in data set [6] worked out at 71 µL/min/1e6 cells.

For the compound `Cc1ncc(-c2nc3c(OC4(C)CC4)nc(Nc4cnn([C@@H]5C[C@@H]6C[C@H]5CN6C)c4)nc3cc2F)cn1`, the results for the IC50 in data set [1] and in data set [2] were 4 nM and 310 nM, respectively. Also, the microsomal CLint in data set [5] came out at 15 µL/min/mg. Moreover, the pH-dependent lipophilicity (logD) in data set [3] amounted to 1.7. In data set [6], the hepatocyte CLint was below 1 µL/min/1e6 cells.

With `Cc1ncncc1-c1nc2c(OC3(C)CC3)nc(Nc3cnn(C4CCN(C)CC4)c3)nc2cc1F`, the IC50 in data set [1] is 15 nM; in data set [2] it was 480 nM. For the same compound, the microsomal CLint in data set [4] is below 0.5 µL/min/mg; in data set [5], 53 µL/min/mg. In data set [3], this compound showed a pH-dependent lipophilicity (logD) of 2.2. The hepatocyte CLint in data set [6] stood at 5.5 µL/min/1e6 cells.

On to `CC(=O)N1CCC(n2cc(Nc3nc(NC4CCOCC4)c4nc(CC#N)ccc4n3)cn2)CC1`, for which the half-inhibitory concentration (IC50) in data set [1] amounted to 12 nM; in data set [2], 670 nM. Also, the apparent permeability from apical to basolateral (Papp A→B) at 6 h in data set [7] amounted to 4.1 ×10⁻⁶ cm/s. The microsomal CLint in data set [5] worked out at 26 µL/min/mg. In data set [8], the efflux ratio at 6 h worked out at 86. The logD in data set [3] turned out to be 1.4.

For `CN1CCC(n2cc(Nc3nc(OC4(C)CC4)c4nc(-c5cn(C)cn5)ccc4n3)cn2)CC1`, the IC50 in data set [1] was determined as 730 nM; in data set [2], 6800 nM. Besides, the microsomal CLint in data set [5] amounted to 14 µL/min/mg. The same compound gave a logD in data set [3] of 1.8.

For `CC(C)Nc1nc(Nc2cnn(C)c2)nc2ccc(CC#N)nc12`, the IC50 in data set [1] was determined as 51 nM; in data set [2], 570 nM. This compound displayed a pH-dependent lipophilicity (logD) in data set [3] of 2.4.

In the case of `CN1CCC(n2cc(Nc3nc(OC4(C)CC4)c4nc(C5CC5)ccc4n3)cn2)CC1`, the IC50 was determined as 2 nM in data set [1] and 38 nM in data set [2]. Also, the microsomal CLint in data set [5] amounted to 37 µL/min/mg. Besides, the pH-dependent lipophilicity (logD) in data set [3] was found to be 2.8. The hepatocyte CLint in data set [6] is 4.6 µL/min/1e6 cells.

Usually IC50 stands for the midpoint of a concentration-inhibition curve. The term logD denotes the decadic logarithm of the distribution of all forms, ionised or not, between an organic phase and buffer at a given pH. Higher therefore signals a more lipophilic compound. One may read the Papp A→B as how fast a substance crosses the layer from the apical side. For orientation: efflux ratio means a quotient of directional permeabilities that is used to spot active efflux.
